Consider ten molecules from patent EP2711366A1, “Cationic triphenylamine derivatives activable by visible and Infra Red light for inducing and imaging apoptosis in cancer cells” (Institut Curie, priority 2012, dated 2014).

Where two headings read alike, the source gives them in different places. Numbered stars: 1 amine (or outer) side, 2 acyl side, 3 side chain; on linkers, the order of the positions; unused ones are H or OH. Bridge positions count the residues as written; N and C are the ends. Square brackets hold non-standard residues; d marks the D form. Peptide text beside a SMILES is read from it. I, II: the chains in the order shown. Actinocin(9to1) = Cc1c2oc3c(C)ccc(C(=O)[*:1])c3nc-2c(C(=O)[*:2])c(N)c1=O; NMeV = CN[C@H](C(=O)O)C(C)C; Sar = CNCC(=O)O

For data set [1] the following is noted: 532 or 665-nm line laser sources; cited from earlier work.
Data set [2] concerns HeLa cells. As to the kind of experiment: Cytophototoxicity by MTT assay under illumination. The conditions noted are these: irradiance 60mW/cm^2. It is filed as cell-based.
Method: (§1) Different experiments were conducted and described below: • MCF7 cells were treated with 2µM of TP2Py or TP3Bzim and exposed to illumination (Fig.9A); • HeLa cells were treated with 2µM of TP2Py or TP3Bzim and exposed to illumination (Fig.9B); • MCF7 cells were treated with TP2Py, 40 min illumination (black circles) or without illumination (white circles) (Fig.9C) • HeLa cells were treated with TP2Py [30 min illumination (black circles) or without illumination (white circles)] or TP3Bzim [15 min illumination (black triangles) or without illumination (white triangles)]
(§2) For each experiment, the source of excitation was a Mercury lamp (130W; 380-600nm) with an excitation filter centered at 452nm (± 45 nm), irradiance, 60mW/cm^2.
(§3) First, the experiment was calibrated by determining the time of illumination exposure which leads to the toxicity 50%, for a given concentration of TPA (2 µM) and for an irradiance of 60mW/cm^2. […] This characteristic time was then used for the plots shown in Fig. 9C and 9D which represent the cell viability as a function of TPA concentration (in HeLa and MCF-7 cells, respectively).
The nature of data set [3]: Dark toxicity (MTT assay, without illumination). In kind it is cell-based. The conditions noted are these: human; MCF-7 cells, tested in dark; read-out: TC50 (toxicity concentration 50%), dark toxicity.
Method: as §1, §2, §3
The test system of a further data set is living MCF-7 cells. Nature of the data set: One-photon confocal fluorescence microscopy, photo-induced nuclear translocation and membrane blebbing. It is filed as cell-based. The conditions noted are these: 2µM, 2 hours, confocal, λexc 458 nm (Fig. 5). As for the experimental part:
One-photon epifluorescence and confocal images were obtained using a SP2 confocal microscope (Leica MicroSystem) equipped with an incubation chamber (37°C, CO2 5%). Excitation and emission filters for epifluorescence were 450-490 nm and 515-700 nm, respectively. A continuous laser line (458 nm) was used for excitation in the confocal mode.
The photo-induced nuclear translocation and membrane blebbing were next assessed using confocal fluorescence microscopy [λexc = 458 nm; emission slit settings: 560-720nm and 530-690nm for TP2Py and TP3Bzim, respectively] under experimental conditions similar to those described in experiment 1 for epifluorescence experiments. The corresponding transmission images illustrating the concomitant membrane blebbing are shown below the confocal fluorescence images. Living MCF7 cells were incubated with 2µM TP3Bzim or TP2Py for 2 hours before observation. As shown in Fig. 5A (TP2Py) and in Fig. 5B (TP3BZim), the results obtained with confocal imaging were similar to those obtained with epifluorescence imaging (experiment 1), with however, some discrepancies in the time courses of event appearance, most likely due to the power of the excitation source which is different between epifluorescence and confocal experiments (see below). […] Based on both criteria (re-localization of the fluorescence signal and the formation of blebs), the deduced fluences were 22 and 40 J/cm^2 for TP2Py and TP3Bzim, respectively. […]
The TP2Py compound at a concentration of 2 µM was first incubated with living MCF-7 cells for 2 hours and then observed with confocal microscope with varying illumination power of the laser source [λ=458 nm; emission slit setting: 560-720 nm]. […] For each condition, the fluorescence intensity in ROIs corresponding to the nucleus was plotted as a function of time (the initial time value, t = 0, represents the first observation) (FIG.7C). Using integration time based on tmax values, light dose values, determined from experiments performed at irradiance of 5.6 or 30 mW/cm^2, were consistent (27.6 and 27 J/cm^2 respectively). These values are in accordance with the above-mentioned value for TP2Py (fluence, 22 J/cm^2 in Fig. 5).
Living MCF-7 cells were treated with varying concentrations of TP2Py for two hours (2µM; 0.2µM and 0.02µM) and observed with a confocal microscope [λexc = 458nm; irradiance 30mW/cm^2, emission slit setting: 560-720nm.] (FIG 8A: 2µM; FIG 8B: 0.2µM; FIGBC: 0.02µM).

A further data set deals with DNA. The conditions noted are these: b156 attributes 634 nm to DNA-bound TP2Py in vitro (Allains et al. 2007); cited from earlier work.
Data set [4] has as its system HeLa cells.
Method: as §1, §2, §3
A further data set relates to MCF-7 cells. Nature of the data set: FITC-conjugated Annexin V staining, flow cytometric analysis (apoptosis). In kind it is cell-based. The conditions noted are these: proapoptotic controls, no illumination; ActD 1µg/mL; CPT 10µM for 2.5 hours. As for the experimental part:
MCF-7 cells were plated in 12-well plates (2.10^5 cells/well) and incubated with 2µM of TP2Py for 2h at 37°C. Under specific conditions (see Fig. 12), cells were further incubated with NAC (1mM) for 30 min, Bapta-AM (20µM) for 3h, or CsA (10µM) for 1h at 37°C. After a time illumination of either 30 or 60 min at […] (Mercury lamp (130W; 380-600nm) + excitation filter centered at 452nm (± 45nm)), cells were gently scraped and pooled with medium floating cells. Cells were individualized in PBS-EDTA (10mM) and stained as described by the manufacturer (Roche, Germany). Briefly, the cell pellet was re-suspended in 500µl Annexin V-HEPES solution (10 mM HEPES-NaOH, pH 7.4, 140mM NaCl, 5mM CaCl2) and incubated on ice for 30 min in the dark. Cells were then washed in ice-cold HEPES buffer before analysis. Fluorescence signals of fluorescently labelled (FITC) Annexin V and TP2Py were measured by a FACSCalibur flow cytometer (Becton-Dickinson, Sunnyvale, CA, USA) using FL1 and FL2 detectors, respectively.
Different experiments are summarized below: • MCF-7 cells treated with 2µM TP2Py for 2 hours and then stained with FITC-conjugated Annexin V immediately (Fig.12A) without light exposure; • MCF-7 cells treated with 2µM TP2Py for 2 hours and then stained with FITC-conjugated Annexin V after a time illumination (Exc, 452 nm) of 30 min (Fig.12B); • MCF-7 cells treated with 2µM TP2Py for 2 hours and then stained with FITC-conjugated Annexin V after a time illumination (Exc, 452 nm) of 60 min (Fig.12C); • control MCF-7 cells treated with DMSO (1%) only and illuminated for 30 min before Annexin V staining (Fig.12D); • control MCF-7 cells treated with 1µg/mL actinomycin D (ActD), no illumination before Annexin V staining (Fig.12E); • control MCF-7 cells treated with camptothecin (CPT, 10µM)) (Fig.12F) for 2.5 hours, no illumination before Annexin V staining; • MCF-7 cells treated during 2 hours with 2µM TP2Py and 10µM cyclosporine A (CsA) and illuminated for 30 min before Annexin V staining (Fig.12G); • MCF-7 cells treated during 2 hours with 2µM TP2Py and 1 mM N-Acetyl cysteine (NAC) and illuminated for 30 min before Annexin V staining (Fig.12H); and • MCF-7 cells treated during 2 hours with 2µM TP2Py and 20µM Bapta-am (Fig.12I) and illuminated for 30 min before Annexin V staining.
The horizontal (FL1-H) and vertical (FL2-H) axes correspond to the fluorescence signal of Annexin V and TP2Py, respectively. The percentage of population with a high mean fluorescence signal is indicated in the corresponding quadrant (top right or bottom right in the presence or absence of TP2Py, respectively).

For data set [5] the following is noted: in water up to 10 µM; cited from earlier work.
The conditions of data set [6]: cited from earlier work.
For data set [7] the following is noted: at 630 nm; cited from earlier work.

For the molecule `CN(C)c1ccc(C(=C2C=CC(=[N+](C)C)C=C2)c2ccc(N(C)C)cc2)cc1` [CV, crystal violet], the “total fluence or light dose” value in data set [1] is listed as 1.7 J/cm^2. `CN(C)c1ccc2nc3ccc(=[N+](C)C)cc-3sc2c1` [MB, methylene blue]: the “total fluence or light dose” value in [1] is given as 1.7 J/cm^2. Take `CC(=O)Oc1c(I)cc2c(c1I)Oc1c(cc(I)c(OC(C)=O)c1I)C21OC(=O)c2c(Cl)c(Cl)c(Cl)c(Cl)c21` [RBA, Rose Bengal acetate]: in data set [1], the “total fluence or light dose” value is recorded as 1.6 J/cm^2.

`Cn1c(/C=C/c2ccc(N(c3ccc(/C=C/c4n(C)c5ccccc5[n+]4C)cc3)c3ccc(/C=C/c4n(C)c5ccccc5[n+]4C)cc3)cc2)[n+](C)c2ccccc21` [TP3Bzim]: in the data set on HeLa cells [2] (Mercury lamp, filter 452nm), the “illumination time required for the same TC50 under illumination” value is on record as 15 min. Moreover, the corresponding light dose in the data set on HeLa cells [2] is on record as 54 J/cm^2. Further, the CC50 in [3] was more than 30 µM. The “deduced fluence (re-localization of the fluorescence signal and formation of blebs)” value in the data set with living MCF-7 cells amounted to 40 J/cm^2. The “λmax,emission” value in the data set on DNA was 572 nm. Further, the “dark toxicity (concentration below which negligible)” value with HeLa cells [4] is not below 50 µM. With `Cn1c(/C=C/c2ccc(N(c3ccccc3)c3ccc(/C=C/c4n(C)c5ccccc5[n+]4C)cc3)cc2)[n+](C)c2ccccc21` [Tp2Bzim], the CC50 in [3] came out at 10 µM. As for `C[n+]1ccccc1/C=C/c1ccc(N(c2ccccc2)c2ccc(/C=C/c3cccc[n+]3C)cc2)cc1` [Tp2Pyo], the CC50 in data set [3] was 20 µM.

As to `Cc1c2oc3c(C)ccc(C(=O)N[C@@H]4C(=O)N[C@H](C(C)C)C(=O)N5CCC[C@H]5C(=O)N(C)CC(=O)N(C)[C@@H](C(C)C)C(=O)O[C@@H]4C)c3nc-2c(C(=O)N[C@@H]2C(=O)N[C@H](C(C)C)C(=O)N3CCC[C@H]3C(=O)N(C)CC(=O)N(C)[C@@H](C(C)C)C(=O)O[C@@H]2C)c(N)c1=O` [actinomycin D, reference compound] (I: T[dV]P[Sar][NMeV] / II: T[dV]P[Sar][NMeV]; ester I:1-I:C, II:1-II:C; linker I:N-II:N via Actinocin(9to1)), the “HMFI population (Annexin V positive, TP2Py negative)” value in the data set on MCF-7 cells is listed as 34%. The same measure, in the same setting: in the case of `CC[C@@]1(O)C(=O)OCc2c1cc1n(c2=O)Cc2cc3ccccc3nc2-1` [camptothecin, reference compound] it was 37%. On to `C=Cc1c(C)c2cc3nc(c(CC(=O)O)c4[nH]c(cc5nc(cc1[nH]2)C(C)=C5CC)c(C)c4C(=O)O)[C@@H](CCC(=O)O)[C@@H]3C` [chlorin e6], for which the quantum yield in [5] is reported as 0.008-0.01. Further, the two-photon cross-section in [6] (at 800 nm) was 29 GM. Take Photofrin®: in [7], the extinction coefficient is 3200 M⁻¹ cm⁻¹. In addition, the two-photon cross-section is listed as 10 GM in [6] (at 800 nm) and 5 GM in data set [6] (at 900 nm).
